Measured values from ChEMBL document CHEMBL5653615 (J Biol Chem, 2013).

Assays:
[1] = target: Ribosomal protein S6 kinase beta-2 (Homo sapiens) (UniProt Q9UBS0); assay: Inhibition of human RPS6KB2 at 18.6 nM by HotSpot assay relative to control
[2] = target: T1, Phosphorylase b kinase gamma catalytic chain, liver/testis isoform (Homo sapiens) (UniProt P15735); assay: Inhibition of human PHKg2 at 18.6 nM by HotSpot assay relative to control
T1 sequence (whole entry): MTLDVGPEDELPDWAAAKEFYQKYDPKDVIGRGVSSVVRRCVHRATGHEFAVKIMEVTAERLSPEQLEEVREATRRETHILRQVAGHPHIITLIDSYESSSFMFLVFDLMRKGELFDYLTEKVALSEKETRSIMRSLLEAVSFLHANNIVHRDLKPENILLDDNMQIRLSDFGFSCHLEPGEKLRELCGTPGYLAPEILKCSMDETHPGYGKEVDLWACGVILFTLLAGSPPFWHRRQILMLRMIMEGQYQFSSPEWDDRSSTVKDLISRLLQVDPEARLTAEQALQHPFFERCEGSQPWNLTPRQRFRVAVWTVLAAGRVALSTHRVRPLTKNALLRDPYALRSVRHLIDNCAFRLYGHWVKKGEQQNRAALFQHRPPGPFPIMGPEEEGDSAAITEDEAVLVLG

[3] = target: Maternal embryonic leucine zipper kinase (Homo sapiens) (UniProt Q14680); assay: Inhibition of human MELK at 18.6 nM by HotSpot assay relative to control
Maternal embryonic leucine zipper kinase (Homo sapiens), sequence (Q14680 whole entry, looked up): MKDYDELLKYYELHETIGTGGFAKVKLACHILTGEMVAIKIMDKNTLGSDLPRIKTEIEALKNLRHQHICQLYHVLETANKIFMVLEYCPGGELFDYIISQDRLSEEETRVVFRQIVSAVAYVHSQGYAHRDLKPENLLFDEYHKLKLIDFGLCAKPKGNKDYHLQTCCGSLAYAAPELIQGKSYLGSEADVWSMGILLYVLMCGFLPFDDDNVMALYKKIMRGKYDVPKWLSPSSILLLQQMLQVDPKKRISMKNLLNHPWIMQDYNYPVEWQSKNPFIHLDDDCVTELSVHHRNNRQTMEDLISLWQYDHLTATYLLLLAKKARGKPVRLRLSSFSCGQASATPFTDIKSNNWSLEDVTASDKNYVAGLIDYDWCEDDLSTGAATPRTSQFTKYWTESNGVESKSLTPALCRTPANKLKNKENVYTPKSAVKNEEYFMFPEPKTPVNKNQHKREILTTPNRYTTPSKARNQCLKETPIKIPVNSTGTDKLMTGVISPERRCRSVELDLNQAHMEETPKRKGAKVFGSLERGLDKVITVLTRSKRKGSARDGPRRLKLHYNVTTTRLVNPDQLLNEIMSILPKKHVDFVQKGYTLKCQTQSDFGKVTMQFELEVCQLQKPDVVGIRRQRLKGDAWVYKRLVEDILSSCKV

[4] = target: Death-associated protein kinase 3 (Homo sapiens) (UniProt O43293); assay: Inhibition of human DAPK3 at 18.6 nM by HotSpot assay relative to control
Death-associated protein kinase 3 (Homo sapiens), sequence (O43293 whole entry, looked up): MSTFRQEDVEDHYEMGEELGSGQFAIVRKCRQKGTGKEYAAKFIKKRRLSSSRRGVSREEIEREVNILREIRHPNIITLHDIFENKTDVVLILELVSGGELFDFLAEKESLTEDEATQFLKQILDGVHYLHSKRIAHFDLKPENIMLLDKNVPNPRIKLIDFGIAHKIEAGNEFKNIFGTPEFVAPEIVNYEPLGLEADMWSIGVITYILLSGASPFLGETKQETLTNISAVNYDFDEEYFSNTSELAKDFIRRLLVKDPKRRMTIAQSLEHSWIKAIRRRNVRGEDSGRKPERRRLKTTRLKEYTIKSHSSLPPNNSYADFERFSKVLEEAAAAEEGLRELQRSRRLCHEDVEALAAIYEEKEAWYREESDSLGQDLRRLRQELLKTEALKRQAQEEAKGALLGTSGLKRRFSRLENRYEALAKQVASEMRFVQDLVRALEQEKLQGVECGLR

[5] = target: CDK4/Cyclin D3 (Homo sapiens) (UniProt P11802+P30281); assay: Inhibition of human CDK4/cyclin D3 at 18.6 nM by HotSpot assay relative to control; format: protein-complex assay
[6] = target: T2, Serine/threonine-protein kinase Sgk2 (Homo sapiens) (UniProt Q9HBY8); assay: Inhibition of human SGK2 at 1.82 nM by HotSpot assay relative to control
T2 sequence (whole entry): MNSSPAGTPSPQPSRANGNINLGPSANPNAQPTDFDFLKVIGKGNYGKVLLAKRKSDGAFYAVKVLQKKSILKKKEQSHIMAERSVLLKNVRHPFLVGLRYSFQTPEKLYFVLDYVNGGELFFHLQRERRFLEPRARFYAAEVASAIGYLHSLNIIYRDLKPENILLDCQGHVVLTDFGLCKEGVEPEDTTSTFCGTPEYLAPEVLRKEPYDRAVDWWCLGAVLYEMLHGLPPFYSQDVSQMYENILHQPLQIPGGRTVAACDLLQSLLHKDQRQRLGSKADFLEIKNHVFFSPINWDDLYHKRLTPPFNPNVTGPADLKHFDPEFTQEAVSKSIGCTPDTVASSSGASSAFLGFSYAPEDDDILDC

[7] = target: T3, Serine/threonine-protein kinase TAO3 (Homo sapiens) (UniProt Q9H2K8); assay: Inhibition of human JIK at 1.82 nM by HotSpot assay relative to control
T3 sequence (whole entry): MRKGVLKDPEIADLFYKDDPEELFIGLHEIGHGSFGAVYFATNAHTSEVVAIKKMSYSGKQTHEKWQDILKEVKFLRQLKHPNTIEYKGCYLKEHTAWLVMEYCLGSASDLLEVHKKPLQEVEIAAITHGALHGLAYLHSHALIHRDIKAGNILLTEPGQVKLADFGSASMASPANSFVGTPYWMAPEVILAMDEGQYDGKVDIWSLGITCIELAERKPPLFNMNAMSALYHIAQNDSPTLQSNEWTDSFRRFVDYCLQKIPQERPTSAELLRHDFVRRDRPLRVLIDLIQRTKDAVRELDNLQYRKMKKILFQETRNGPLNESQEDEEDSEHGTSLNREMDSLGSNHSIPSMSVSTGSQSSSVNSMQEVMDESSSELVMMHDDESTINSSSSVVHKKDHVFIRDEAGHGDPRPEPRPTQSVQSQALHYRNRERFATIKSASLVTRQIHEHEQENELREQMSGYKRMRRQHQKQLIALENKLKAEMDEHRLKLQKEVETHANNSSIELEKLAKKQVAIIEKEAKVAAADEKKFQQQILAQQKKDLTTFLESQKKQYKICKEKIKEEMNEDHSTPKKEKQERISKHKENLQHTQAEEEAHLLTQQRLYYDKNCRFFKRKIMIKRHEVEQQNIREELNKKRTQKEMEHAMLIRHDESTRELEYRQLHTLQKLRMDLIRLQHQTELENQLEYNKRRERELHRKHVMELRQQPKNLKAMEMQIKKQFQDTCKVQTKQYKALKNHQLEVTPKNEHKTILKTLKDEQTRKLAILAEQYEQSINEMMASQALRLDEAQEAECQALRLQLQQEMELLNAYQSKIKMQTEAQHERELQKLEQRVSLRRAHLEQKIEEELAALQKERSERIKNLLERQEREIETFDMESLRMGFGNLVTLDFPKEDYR

[8] = target: T4, Beta-adrenergic receptor kinase 1 (Homo sapiens) (UniProt P25098); assay: Inhibition of human GRK2 at 1.82 nM by HotSpot assay relative to control
T4 sequence (whole entry): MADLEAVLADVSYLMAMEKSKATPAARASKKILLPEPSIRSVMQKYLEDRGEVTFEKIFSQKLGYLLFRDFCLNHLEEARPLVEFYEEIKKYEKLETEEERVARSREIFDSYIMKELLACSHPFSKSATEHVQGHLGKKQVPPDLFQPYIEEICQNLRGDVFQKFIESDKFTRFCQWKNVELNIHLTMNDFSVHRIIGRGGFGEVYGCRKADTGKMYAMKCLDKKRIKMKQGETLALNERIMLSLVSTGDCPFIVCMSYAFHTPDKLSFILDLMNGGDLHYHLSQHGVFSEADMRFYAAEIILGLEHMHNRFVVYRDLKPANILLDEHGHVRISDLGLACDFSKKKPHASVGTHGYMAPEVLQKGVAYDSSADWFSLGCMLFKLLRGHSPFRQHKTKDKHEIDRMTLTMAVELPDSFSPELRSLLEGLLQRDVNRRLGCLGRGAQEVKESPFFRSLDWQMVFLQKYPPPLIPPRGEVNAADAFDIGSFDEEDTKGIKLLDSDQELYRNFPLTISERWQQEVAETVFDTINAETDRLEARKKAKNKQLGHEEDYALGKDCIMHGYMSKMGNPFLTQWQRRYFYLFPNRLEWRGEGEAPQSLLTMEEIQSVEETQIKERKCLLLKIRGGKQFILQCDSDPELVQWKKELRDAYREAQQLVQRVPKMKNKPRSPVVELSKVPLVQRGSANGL

[9] = target: Glycogen synthase kinase-3 beta (Homo sapiens) (UniProt P49841); assay: Inhibition of human GSK3b at 1.82 nM by HotSpot assay relative to control
Glycogen synthase kinase-3 beta (Homo sapiens), sequence (P49841 whole entry, looked up): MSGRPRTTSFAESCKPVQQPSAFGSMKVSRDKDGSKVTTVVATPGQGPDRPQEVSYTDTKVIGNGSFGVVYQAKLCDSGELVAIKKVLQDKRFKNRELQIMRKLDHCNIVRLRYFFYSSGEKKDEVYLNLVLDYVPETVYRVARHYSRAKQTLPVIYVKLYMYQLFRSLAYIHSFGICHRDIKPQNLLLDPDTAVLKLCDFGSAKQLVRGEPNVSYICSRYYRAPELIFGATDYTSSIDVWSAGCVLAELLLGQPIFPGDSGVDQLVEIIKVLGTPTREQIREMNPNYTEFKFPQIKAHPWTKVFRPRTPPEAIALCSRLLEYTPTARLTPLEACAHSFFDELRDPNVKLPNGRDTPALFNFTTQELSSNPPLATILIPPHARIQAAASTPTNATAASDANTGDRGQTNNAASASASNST

[10] = target: Non-receptor tyrosine-protein kinase TYK2 (Homo sapiens) (UniProt P29597); assay: Inhibition of human TYK2 at 1.82 nM by HotSpot assay relative to control
Non-receptor tyrosine-protein kinase TYK2 (Homo sapiens), sequence (P29597 whole entry): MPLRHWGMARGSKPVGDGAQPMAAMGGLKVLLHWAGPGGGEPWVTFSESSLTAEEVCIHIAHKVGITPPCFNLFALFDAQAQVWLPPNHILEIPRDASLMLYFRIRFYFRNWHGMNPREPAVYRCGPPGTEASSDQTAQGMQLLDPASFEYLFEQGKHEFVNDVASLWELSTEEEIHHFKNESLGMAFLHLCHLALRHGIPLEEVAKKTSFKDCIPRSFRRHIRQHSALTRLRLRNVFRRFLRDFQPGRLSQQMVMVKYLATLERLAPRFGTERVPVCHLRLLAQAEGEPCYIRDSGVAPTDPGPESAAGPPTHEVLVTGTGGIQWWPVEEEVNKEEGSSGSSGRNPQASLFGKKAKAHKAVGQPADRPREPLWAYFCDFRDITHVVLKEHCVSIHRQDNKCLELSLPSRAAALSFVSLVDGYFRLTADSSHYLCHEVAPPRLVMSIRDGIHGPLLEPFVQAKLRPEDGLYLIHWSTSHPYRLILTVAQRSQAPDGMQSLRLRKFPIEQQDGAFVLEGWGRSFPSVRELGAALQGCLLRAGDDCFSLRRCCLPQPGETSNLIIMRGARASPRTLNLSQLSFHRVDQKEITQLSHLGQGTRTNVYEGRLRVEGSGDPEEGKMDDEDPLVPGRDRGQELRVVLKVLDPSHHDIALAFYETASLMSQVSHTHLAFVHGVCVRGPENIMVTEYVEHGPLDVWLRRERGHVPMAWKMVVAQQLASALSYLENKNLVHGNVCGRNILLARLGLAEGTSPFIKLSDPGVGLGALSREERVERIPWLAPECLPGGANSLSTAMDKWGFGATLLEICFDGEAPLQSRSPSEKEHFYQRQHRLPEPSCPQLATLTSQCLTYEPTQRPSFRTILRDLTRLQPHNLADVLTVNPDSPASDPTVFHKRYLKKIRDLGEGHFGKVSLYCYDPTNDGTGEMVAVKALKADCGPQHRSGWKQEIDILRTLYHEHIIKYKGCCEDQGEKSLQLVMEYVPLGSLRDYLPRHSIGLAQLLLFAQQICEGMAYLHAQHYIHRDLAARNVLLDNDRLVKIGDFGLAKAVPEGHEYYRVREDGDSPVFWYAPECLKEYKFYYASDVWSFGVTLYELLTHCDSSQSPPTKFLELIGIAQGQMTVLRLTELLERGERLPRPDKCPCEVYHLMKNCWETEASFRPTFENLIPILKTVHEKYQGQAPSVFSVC

[11] = target: Serine/threonine-protein kinase 24 (Homo sapiens) (UniProt Q9Y6E0); assay: Inhibition of human STK24 at 1.82 nM by HotSpot assay relative to control
Serine/threonine-protein kinase 24 (Homo sapiens), sequence (Q9Y6E0 whole entry, looked up): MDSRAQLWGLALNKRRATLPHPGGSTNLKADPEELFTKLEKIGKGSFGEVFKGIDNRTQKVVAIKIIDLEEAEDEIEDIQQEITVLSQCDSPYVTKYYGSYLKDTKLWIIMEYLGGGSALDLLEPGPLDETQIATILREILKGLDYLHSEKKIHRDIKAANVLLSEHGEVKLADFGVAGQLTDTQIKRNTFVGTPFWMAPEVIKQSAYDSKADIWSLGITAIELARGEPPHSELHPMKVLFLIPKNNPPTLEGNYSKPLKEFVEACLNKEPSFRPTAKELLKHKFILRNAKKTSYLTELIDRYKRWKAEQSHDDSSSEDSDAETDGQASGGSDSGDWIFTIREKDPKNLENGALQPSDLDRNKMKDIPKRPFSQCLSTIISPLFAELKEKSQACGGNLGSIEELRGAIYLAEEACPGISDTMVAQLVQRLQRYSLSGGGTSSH

Ribosomal protein S6 kinase beta-2 (Homo sapiens), sequence (Q9UBS0 whole entry, canonical isoform): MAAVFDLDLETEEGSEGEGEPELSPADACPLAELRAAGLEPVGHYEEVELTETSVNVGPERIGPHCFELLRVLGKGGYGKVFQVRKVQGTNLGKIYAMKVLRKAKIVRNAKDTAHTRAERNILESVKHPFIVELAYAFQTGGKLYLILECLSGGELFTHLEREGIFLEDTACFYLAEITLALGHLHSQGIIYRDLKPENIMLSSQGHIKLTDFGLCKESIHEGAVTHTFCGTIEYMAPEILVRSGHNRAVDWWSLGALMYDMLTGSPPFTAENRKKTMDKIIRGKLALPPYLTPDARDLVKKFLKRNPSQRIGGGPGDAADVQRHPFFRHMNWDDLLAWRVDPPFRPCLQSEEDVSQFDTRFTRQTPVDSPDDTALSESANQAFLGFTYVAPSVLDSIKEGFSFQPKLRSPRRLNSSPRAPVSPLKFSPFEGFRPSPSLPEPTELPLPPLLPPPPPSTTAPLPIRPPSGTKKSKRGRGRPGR

inhibition [1]	inhibition [2]	inhibition [3]	inhibition [5]	inhibition [6]	inhibition [7]	inhibition [8]	inhibition [9]	inhibition [10]	inhibition [11]	Compound	inhibition [4]
0.94%	-2.29%	-2.08%	2.46%	–	–	–	–	–	–	C[C@]1(O)C[C@@H](c2nc(-c3ccc4ccc(-c5ccccc5)nc4c3)c3c(N)nccn32)C1	6.02%
–	–	–	–	-0.21%	4.12%	-0.25%	34.6%	1.02%	2.42%	C[C@@]1(C(=O)Nc2ccc(F)nc2)CCCN1c1nc(Nc2cc(C3CC3)n[nH]2)c2cccn2n1	–
